Assay results taken from patent publication US6864253B2, “Benzo[4,5]thieno[2,3-c]pyridine and Benzo[4,5]furo[2,3-c]pyridine Derivatives Useful as Inhibitors of Phosphodiesterase” (Orth-McNeil Pharmaceutical, Inc., priority 2000, dated 2005).
Several values for one entry are separate records, joined by “and”; a condition that tells them apart may be missing. Equal entries are not always repeated.

Biological target: PDEV (Oryctolagus cuniculus, UniProt G1SX67)
Assay: Cyclic nucleotide phosphodiesterase (PDE) assay, inhibition of PDEV isolated from rabbit tissue
Format: biochemical
Conditions: 10 μM test compound; rabbit PDEV
Method: Briefly, rabbit or human tissues were homogenized in an ice-cold buffer solution containing 20 mM HEPES (pH 7.2), 0.25M sucrose, 1 mM EDTA, and 1 mM phenylmethylsulphonyl fluoride (PMSF). The homogenates were centrifuged at 100,000 g for 60 minutes at 4° C. The supernatant was filtered through […] filter and loaded on a Pharmacia Mono Q anion exchange column (1 ml bed volume) that was equilibrated with 20 mM HEPES, 1 mM EDTA and 0.5 mM PMSF. […] The fractions comprising various PDE activities were pooled separately and used in later studies.
The assays were adapted to a 96-well format. The enzyme was assayed in 5 mM MgCl2, 15 mM Tris HCl (pH 7.4), 0.5 mg/ml bovine serum albumin, 1 μM cGMP or cAMP, 0.1 μCi [^3H]-cGMP or [^3H]-cAMP, and 2-10 μl of column elution. The total volume of the assay was 100 μl. The reaction mixture was incubated at 30° C. for 30 minutes. The reaction was stopped by boiling for 1 minute and then cooled down on ice. The resulting [^3H] 5′-mononucleotides were further converted to uncharged [^3H]-nucleosides by adding 25 μl 1 mg/ml snake venom (Ophiophagus hannah) and incubating at 30° C. for 10 minute. The reaction was stopped by the addition of 1 ml Bio-Rad AG1-X2 resin slurry (1:3). All the charged nucleotides were bound by the resin and only the uncharged [^3H]-nucleosides remained in the supernatant after centrifuging. An aliquot of 200 μl was taken and counted by liquid scintillation. PDE activity was expressed as pmol cyclic nucleotide hydrolyzed/min/ml of enzyme preparation.
Inhibitor studies were carried out in assay buffer with a final concentration of 10% DMSO.

| SMILES | % Inh @ 10 μM (rabbit) [%] |
| --- | --- |
| Cc1oc(-c2ccccc2)cc1C(=O)N1CCc2c([nH]c3ccccc23)C1c1ccc2c(c1)OCO2 (racemic) [Cmpd 104] | 72 |
| O=C(c1cc(-c2ccc(Cl)cc2)oc1C(F)(F)F)N1CCc2c([nH]c3ccccc23)C1c1ccc2c(c1)OCO2 (racemic) [Cmpd 105] | 40 |
| Cc1cc(C(=O)N2CCc3c([nH]c4ccccc34)C2c2ccc3c(c2)OCO3)nn1-c1ccccc1 (racemic) [Cmpd 106] | 70 |
| Cc1cc(C(=O)N2CCc3c([nH]c4ccccc34)C2c2ccc(OCCCN(C)C)cc2)nn1-c1ccccc1 (racemic) [Cmpd 107] | 15 |
| O=C(c1ccc(Cl)nc1)N1CCc2c([nH]c3ccccc23)C1c1ccc2c(c1)OCO2 (racemic) [Cmpd 108] | 48 |
| Cc1onc(-c2ccccc2)c1C(=O)N1CCc2c([nH]c3ccccc23)C1c1ccc(Cl)c(Cl)c1 (racemic) [Cmpd 109] | 31 |
| COc1ccc(C2c3[nH]c4ccccc4c3CCN2C(=O)c2c(-c3ccccc3)noc2C)cc1OC (racemic) [Cmpd 110] | 32 |
| Cc1ccc(C2c3[nH]c4ccccc4c3CCN2C(=O)c2c(-c3ccccc3)noc2C)cc1C (racemic) [Cmpd 111] | 35 |
| Cc1onc(-c2ccccc2)c1C(=O)N1CCc2c([nH]c3ccccc23)C1c1ccc2c(c1)OCO2 (racemic) [Cmpd 112] | 33 |
| Cc1cc(C)cc(C2c3[nH]c4ccccc4c3CCN2C(=O)c2c(-c3ccccc3)noc2C)c1 (racemic) [Cmpd 113] | 29 |
| Cc1onc(-c2ccccc2)c1C(=O)N1CCc2c([nH]c3ccccc23)C1c1ccc(Cl)c(C(F)(F)F)c1 (racemic) [Cmpd 114] | 27 |
| Cc1onc(-c2ccccc2)c1C(=O)N1CCc2c([nH]c3ccccc23)C1c1ccc(C#N)cc1 (racemic) [Cmpd 115] | 30 |
| COC(=O)c1ccc(C2c3[nH]c4ccccc4c3CCN2C(=O)c2c(-c3ccccc3)noc2C)cc1 (racemic) [Cmpd 116] | 32 |
| COc1ccc(C2c3[nH]c4ccccc4c3CCN2C(=O)c2c(-c3ccccc3)noc2C)cc1 (racemic) [Cmpd 117] | 32 |
| Cc1onc(-c2ccccc2)c1C(=O)N1CCc2c([nH]c3ccccc23)C1c1ccc([N+](=O)[O-])cc1 (racemic) [Cmpd 118] | 28 |
| Cc1ccc(C2c3[nH]c4ccccc4c3CCN2C(=O)c2cnn(-c3ccccc3)c2C(F)(F)F)cc1C (racemic) [Cmpd 119] | 28 |
| O=C(c1cnn(-c2ccccc2)c1C(F)(F)F)N1CCc2c([nH]c3ccccc23)C1c1ccc(Cl)c(Cl)c1 (racemic) [Cmpd 120] | 18 |
| COc1ccc(C2c3[nH]c4ccccc4c3CCN2C(=O)c2cnn(-c3ccccc3)c2C(F)(F)F)cc1OC (racemic) [Cmpd 121] | 10 |
| CCCc1c(C(=O)N2CCc3c([nH]c4ccccc34)C2c2ccc3c(c2)OCO3)cnn1-c1ccccc1 (racemic) [Cmpd 122] | 65 |
| CN(C)CCn1c2c(c3ccccc31)CCN(c1nc3ccccc3s1)C2c1ccc2c(c1)OCO2 (stereo not shown) [Cmpd 2] | 43 |
| c1ccc2sc(N3CCc4c([nH]c5ccccc45)C3c3ccc4c(c3)OCO4)nc2c1 (stereo not shown) [Cmpd 3] | 84 |
| CN(C)CCn1c2c(c3ccccc31)CCN(c1ncc(-c3ccc(Cl)cc3)cn1)C2c1ccc2c(c1)OCO2 (stereo not shown) [Cmpd 4] | 94 |
| COc1ccc(-c2cnc(N3CCc4c(n(CCN(C)C)c5ccccc45)C3c3ccc4c(c3)OCO4)nc2)cc1 (stereo not shown) [Cmpd 6] | 95 |
| CS(=O)(=O)c1ccc(-c2cnc(N3CCc4c([nH]c5ccccc45)C3c3ccc4c(c3)OCO4)nc2)c([N+](=O)[O-])c1 (stereo not shown) [Cmpd 8] | 89 |
| COc1ccc(-c2cnc(N3CCc4c([nH]c5ccccc45)C3c3ccc4c(c3)OCO4)nc2)cc1 (stereo not shown) [Cmpd 9] | 80 |
| Clc1ccc(-c2cnc(N3CCc4c([nH]c5ccccc45)C3c3ccc4c(c3)OCO4)nc2)cc1 (stereo not shown) [Cmpd 10] | 79 |
| FC(F)(F)c1ccc(Cl)c(-c2ccc(CN3CCc4c([nH]c5ccccc45)C3c3ccc4c(c3)OCO4)o2)c1 (stereo not shown) [Cmpd 11] | 53 |

| SMILES | % Inh @ 10 μM (rabbit) [%] |
| --- | --- |
| FC(F)(F)c1cccc(-c2ccc(CN3CCc4c([nH]c5ccccc45)C3c3ccc4c(c3)OCO4)o2)c1 (stereo not shown) [Cmpd 12] | 76 |
| CN(C)CCn1c2c(c3ccccc31)CCN(C(=O)c1cc3cc([N+](=O)[O-])ccc3o1)C2c1ccc2c(c1)OCO2 (stereo not shown) [Cmpd 13] | 94 |
| O=C(c1cc2cc([N+](=O)[O-])ccc2o1)N1CCc2c([nH]c3ccccc23)C1c1ccc2c(c1)OCO2 (stereo not shown) [Cmpd 14] | 88 |
| COc1ccc2cc(C(=O)N3CCc4c([nH]c5ccccc45)C3c3ccc4c(c3)OCO4)oc2c1 (stereo not shown) [Cmpd 15] | 90 |
| O=C(c1cc2ccccc2o1)N1CCc2c([nH]c3ccccc23)C1c1ccc2c(c1)OCO2 (stereo not shown) [Cmpd 16] | 88 |
| CN(C)CCn1c2c(c3ccccc31)CCN(C(=O)c1cc3ccccc3s1)C2c1ccc2c(c1)OCO2 (stereo not shown) [Cmpd 17] | 88 |
| O=C(c1cc2ccccc2s1)N1CCc2c([nH]c3ccccc23)C1c1ccc2c(c1)OCO2 (stereo not shown) [Cmpd 18] | 87 |
| O=C(c1ccc(-c2cccc([N+](=O)[O-])c2)o1)N1CCc2c(n(C(=O)c3ccc(-c4cccc([N+](=O)[O-])c4)o3)c3ccccc23)C1c1ccc2c(c1)OC(F)(F)O2 (stereo not shown) [Cmpd 19] | 15 |
| O=C(c1ccc(-c2cccc(C(F)(F)F)c2)o1)N1CCc2c(n(C(=O)c3ccc(-c4cccc(C(F)(F)F)c4)o3)c3ccccc23)C1c1ccc2c(c1)OC(F)(F)O2 (stereo not shown) [Cmpd 20] | 4 |
| O=C(c1ccc(-c2cccc([N+](=O)[O-])c2)o1)N1CCc2c([nH]c3ccccc23)C1c1ccc2c(c1)OC(F)(F)O2 (stereo not shown) [Cmpd 21] | 32 |
| O=C(c1ccc(-c2cccc(C(F)(F)F)c2)o1)N1CCc2c([nH]c3ccccc23)C1c1ccc2c(c1)OC(F)(F)O2 (stereo not shown) [Cmpd 22] | 16 |
| COC(=O)CCn1c2c(c3ccccc31)CCN(C(=O)c1ccc(-c3cccc(C(F)(F)F)c3)o1)C2c1ccc2c(c1)OCO2 (stereo not shown) [Cmpd 23] | 30 |
| COC(=O)Cn1c2c(c3ccccc31)CCN(C(=O)c1ccc(-c3cccc([N+](=O)[O-])c3)o1)C2c1ccc2c(c1)OCO2 (stereo not shown) [Cmpd 24] | 40 |
| COC(=O)Cn1c2c(c3ccccc31)CCN(C(=O)c1ccc(-c3cccc(C(F)(F)F)c3)o1)C2c1ccc2c(c1)OCO2 (stereo not shown) [Cmpd 25] | 20 |
| O=C(c1ccc(-c2cccc(C(F)(F)F)c2)o1)N1CCc2c(n(Cc3ccccn3)c3ccccc23)C1c1ccc2c(c1)OCO2 (stereo not shown) [Cmpd 26] | 88 |
| O=C(c1ccc(-c2cccc(C(F)(F)F)c2)o1)N1CCc2c(n(CCCCCl)c3ccccc23)C1c1ccc2c(c1)OCO2 (stereo not shown) [Cmpd 27] | 56 |
| O=C(c1ccc(-c2cccc(C(F)(F)F)c2)o1)N1CCc2c(n(CCN3CCOCC3)c3ccccc23)C1c1ccc2c(c1)OCO2 (stereo not shown) [Cmpd 28] | 94 |
| O=C(O)CCn1c2c(c3ccccc31)CCN(C(=O)c1ccc(-c3cccc(C(F)(F)F)c3)o1)C2c1ccc2c(c1)OCO2 (stereo not shown) [Cmpd 29] | 79 |
| O=C(O)Cn1c2c(c3ccccc31)CCN(C(=O)c1ccc(-c3cccc([N+](=O)[O-])c3)o1)C2c1ccc2c(c1)OCO2 (stereo not shown) [Cmpd 30] | 93 |
| O=C(O)Cn1c2c(c3ccccc31)CCN(C(=O)c1ccc(-c3cccc(C(F)(F)F)c3)o1)C2c1ccc2c(c1)OCO2 (stereo not shown) [Cmpd 31] | 75 |
| CN(C)CCCCn1c2c(c3ccccc31)CCN(C(=O)c1ccc(-c3cccc(C(F)(F)F)c3)o1)C2c1ccc2c(c1)OCO2 (stereo not shown) [Cmpd 34] | 67 |
| CN(C)CCn1c2c(c3ccccc31)CCN(C(=O)c1ccc(-c3cccc(C(F)(F)F)c3)o1)C2c1ccc2c(c1)OCO2 (stereo not shown) [Cmpd 35] | 98 |
| CN(C)CCn1c2c(c3ccccc31)CCN(C(=O)c1ccc(C(C)(C)C)o1)C2c1ccc2c(c1)OCO2 (stereo not shown) [Cmpd 36] | 97 |
| CN(C)CCn1c2c(c3ccccc31)CCN(C(=O)c1ccc(-c3ccc([N+](=O)[O-])cc3)o1)C2c1ccc2c(c1)OCO2 (stereo not shown) [Cmpd 37] | 95 |
| CN(C)CCn1c2c(c3ccccc31)CCN(C(=O)c1ccc(-c3cccc([N+](=O)[O-])c3)o1)C2c1ccc2c(c1)OCO2 (stereo not shown) [Cmpd 38] | 91 |
| CN(C)CCn1c2c(c3ccccc31)CCN(C(=O)c1ccc(-c3ccc(Cl)cc3)o1)C2c1ccc2c(c1)OCO2 (stereo not shown) [Cmpd 39] | 93 |
| CN(C)CCn1c2c(c3ccccc31)CCN(C(=O)c1ccc(-c3ccc(Cl)cc3[N+](=O)[O-])o1)C2c1ccc2c(c1)OCO2 (stereo not shown) [Cmpd 40] | 78 |

Same assay, conditions: 10 μM test compound; rabbit PDEV; 10 µM

| SMILES | % Inh @ 10 μM (rabbit) |
| --- | --- |
| CCN(CC)CCn1c2c(c3ccccc31)CCN(C(=O)c1ccc(-c3cccc(C(F)(F)F)c3)o1)C2c1ccc2c(c1)OCO2 (stereo not shown) [Cmpd 33] | 88% and 63% |
